Data as given in patent publication EP3183253B1, “SALT OF (R)-3-(4-(7H-PYRROLO [2,3-D]PYRIMIDIN-4-YL)-LH-PYRAZOL-L-YL)-3-CYCLOPENTYLPROPANENITRILE WITH BENZENESULFONIC ACID” (ratiopharm GmbH, priority 2014, dated 2016).

How the values were obtained:
Type in all cases: physicochemical
[1] = Storage stability: chemical purity by HPLC/UV; conditions: for Chemical purity ([area-%] at λ=230 nm): 40°C/75% rh
Protocol: (§1) Samples were stored in closed and open containers at 25°C/60% rh and at 40°C/75% rh and analyzed after 4, 8 and 12 weeks.
The results of determination of the chemical purity during storage at 40°C/75% rh are summarized. […] Therefore, the analysis of samples, which were stored at 25°C/60% rh, was omitted.

[2] = Dynamic vapor sorption experiment (hygroscopicity); conditions: 25°C, reducing humidity to 0% and increasing to 40%
Protocol: Vapour sorption experiments were performed in the instrument SPSx-1µ (Projekt Messtechnik, Ulm, Germany) at temperature of 25°C and the humidity cycles as shown below.
A dynamic vapor sorption experiment was performed with Ruxolitinib besylate. At a constant temperature of 25°C, the substance was exposed to two cycles of varying relative humidity (rh) (40% → 0% →95% (75% r.h. kept constant for 48h) → 0% →40%). Figure 3a presents the relative weight change as a function of time and relative humidity and in […] changes are illustrated as a function of humidity.

[3] = pH-dependency of solubility at 37°C; conditions: for solubility: 37°C
Source text: The intestinal tract obeys different pH ranges, which vary from pH 1 to 2 of the empty stomach, pH 3-5 for stomach filled with chyme, to pH 5-7.5 of the colon.

[4] = Storage stability: solid-state stability by XRPD analysis
Protocol: The sample was analyzed on a D8 Advance X-ray powder diffractometer (Bruker-AXS, Karlsruhe, Germany). The sample holder was rotated in a plane parallel to its surface at 20 rpm during the measurement. The raw data were analyzed with the program EVA (Bruker-AXS, Germany). The samples were layered onto a silicon specimen holder.
as §1
The solid-state stability was investigated by XRPD analysis for 25°C/60% rh. The results of evaluation are summarized.

N#CC[C@H](C1CCCC1)n1cc(-c2ncnc3[nH]ccc23)cn1 [Ruxolitinib besylate, Ruxolitinib benzenesulfonate]
chemical stability during storage (in words) ([1]; 40°C/75% rh, 4, 8 and 12 weeks): remained chemically stable | Chemical purity ([area-%] at λ=230 nm) ([1]; closed container, 4 weeks): 98.14% area-% | Chemical purity ([area-%] at λ=230 nm) ([1]; closed container, 8 weeks): 98.27% area-% | Chemical purity ([area-%] at λ=230 nm) ([1]; closed container, 12 weeks): 98.06% area-% | Chemical purity ([area-%] at λ=230 nm) ([1]; closed container, t = 00 (= initial)): 98.16 area-% | Chemical purity ([area-%] at λ=230 nm) ([1]; open container, 4 weeks): 98.16% area-% | Chemical purity ([area-%] at λ=230 nm) ([1]; open container, 8 weeks): 98.21% area-% | Chemical purity ([area-%] at λ=230 nm) ([1]; open container, 12 weeks): 98.22% area-% | Chemical purity ([area-%] at λ=230 nm) ([1]; open container, t = 00 (= initial)): 98.16 area-% | weight after desorption and re-sorption (in words) [2]: resulted in the initial starting weight | solubility at 0.5 h ([3]; 0.1m hcl, pH 1.2, 37°C, 0.1M HCl pH1.2, 0.5 h): 9600 µg/mL | solubility at 1 h ([3]; 0.1m hcl, pH 1.2, 37°C, 0.1M HCl pH1.2, 1 h): 9600 µg/mL | solubility at 24 h ([3]; 0.1m hcl, pH 1.2, 37°C, 0.1M HCl pH1.2, 24 h): 9300 µg/mL | solubility at 1 h ([3]; 20mm naoac, pH 4.5, 37°C, 20mM (NaOAc / NaAc) -pH 4.5, 1 h): 7100 µg/mL | solubility ([3]; 20mM (NaOAc / NaAc) -pH 4.5, 0.5 h): 6700 µg/mL | solubility ([3]; 20mM (NaOAc / NaAc) -pH 4.5, 24 h): 6100 µg/mL | solubility ([3]; 50mM KH2PO4 pH 6.8, 24 h): 5800 µg/mL | solubility at 0.5 h ([3]; 50mm kh2po4, pH 6.8, 37°C, 50mM KH2PO4 pH 6.8, 0.5 h): 6800 µg/mL | solubility at 1 h ([3]; 50mm kh2po4, pH 6.8, 37°C, 50mM KH2PO4 pH 6.8, 1 h): 7000 µg/mL | stability upon storage (in words) ([4]; 25°C and 60% relative humidity (RH), up to at least 12 weeks): stable | solid-state stability by XRPD (in words) ([4]; 25°C/60% rh, throughout the observation period): remained unchanged
